In ChEMBL document CHEMBL5608234, “Heat Shock Protein 90 Interactome-Mediated Proteolysis Targeting Chimera (HIM-PROTAC) Degrading Glutathione Peroxidase 4 to Trigger Ferroptosis” (J Med Chem, 2024):
pIC50: −log10 of the molar value. Active and inactive are the calls of the source. No cut-off for these calls is given here.

What was measured:
HT-1080 [1] = assay: Cytotoxicity against human HT-1080 cells incubated for 48 hrs by CCK-8 assay; format: functional, cell-based; conditions: HT-1080, 48 h
HT-1080 [2] = assay: HIM-PROTAC activity at GPX4/HSP90/E3 ligase in human HT-1080 cells assessed as reduction in GPX4 level at 0.1 to 3 uM incubated for 24 hrs by Western blotting analysis; format: cell-based; conditions: dose 0.1-3 µM
HT-1080 [3] = assay: HIM-PROTAC activity at GPX4/HSP90/E3 ligase in human HT-1080 cells assessed as reduction in GPX4 level at 0.3 uM incubated for 24 hrs by Western blotting analysis relative to control; format: cell-based; design: scale not given: the % may be the effect or the level left
HT-1080 [4] = assay: HIM-PROTAC activity at GPX4/HSP90/E3 ligase in human HT-1080 cells assessed as reduction in GPX4 level at 1 uM incubated for 24 hrs by Western blotting analysis; format: cell-based
HT-1080 [5] = assay: HIM-PROTAC activity at GPX4/HSP90/E3 ligase in human HT-1080 cells assessed as reduction in GPX4 level at 1 uM incubated for 24 hrs in presence of 6-chloro-9-((4-methoxy-3,5-dimethylpyridin-2-yl)methyl)-9H-purin-2-amine by Western blotting analysis; format: cell-based
HT-1080 [6] = assay: Induction of ferroptosis in human HT-1080 cells assessed as fold increase in cytotoxic IC50 incubated for 48 hrs in presence of Fer-1 by CCK-8 assay; format: functional
HT-1080 [7] = assay: Cytotoxicity against human HT-1080 cells incubated for 48 hrs in presence of Fer-1 by CCK-8 assay; format: functional, cell-based; conditions: HT-1080, 48 h
[8] = Toxicity in BALB/c mouse xenografted with human HT-1080 cells assessed as animal death at 25 mg/kg, ip administered once daily measured after 10 days in presence of 6-chloro-9-((4-methoxy-3,5-dimethylpyridin-2-yl)methyl)-9H-purin-2-amine; format: organism-based; conditions: in vivo, 240 h, time 10 day
[9] = Toxicity in BALB/c mouse xenografted with human HT-1080 cells assessed as animal death at 25 mg/kg, ip administered once daily measured after 10 days in presence of 2-chloro-N-(3-chloro-4-methoxyphenyl)-N-(2-oxo-2-(phenethylamino)-1-(thiophen-2-yl)ethyl)acetamide; format: organism-based; conditions: in vivo, 240 h, time 10 day
HT-1080 [10] = assay: HIM-PROTAC activity at GPX4/HSP90/E3 ligase in human HT-1080 cells assessed as reduction in GPX4 level at 1 uM incubated for 24 hrs in presence of 2-chloro-N-(3-chloro-4-methoxyphenyl)-N-(2-oxo-2-(phenethylamino)-1-(thiophen-2-yl)ethyl)acetamide by Western blotting analysis; format: cell-based

| SMILES | pIC50 (HT-1080 [1]) | Activity (HT-1080 [2]) | also measured |
| --- | --- | --- | --- |
| COc1c(C)cnc(Cn2cnc3c(NCCOCCOCCOCCNC(=O)Cn4cc(COc5ccc(N(C(=O)CCl)C(C(=O)NCCc6ccccc6)c6cccs6)cc5Cl)nn4)nc(N)nc32)c1C (centres undefined) | 5.49 | Active |  |
| Nc1ncnc2c1nc(Sc1cc3c(cc1I)OCO3)n2CCNC(=O)Cn1cc(COc2ccc(N(C(=O)CCl)C(C(=O)NCCc3ccccc3)c3cccs3)cc2Cl)nn1 (centres undefined) | 6.05 | Active |  |
| Nc1ncnc2c1nc(Sc1cc3c(cc1I)OCO3)n2CCCCCNC(=O)Cn1cc(COc2ccc(N(C(=O)CCl)C(C(=O)NCCc3ccccc3)c3cccs3)cc2Cl)nn1 (centres undefined) | 5.89 | Active | Activity (HT-1080 [3]): < 50% |
| NCCC1CCN(C(=O)Cn2cc(COc3ccc(N(C(=O)CCl)C(C(=O)NCCc4ccccc4)c4cccs4)cc3Cl)nn2)CC1 (centres undefined) | 5.08 | Active |  |
| COc1c(C)cnc(Cn2cnc3c(NCCOCCOCCn4cc(COc5ccc(N(C(=O)CCl)C(C(=O)NCCc6ccccc6)c6cccs6)cc5Cl)nn4)nc(N)nc32)c1C (centres undefined) | 6.00 | Active |  |
| O=C1CCC(N2C(=O)c3cccc(NCCOCCOCCOCCn4cc(COc5ccc(N(C(=O)CCl)C(C(=O)NCCc6ccccc6)c6cccs6)cc5Cl)nn4)c3C2=O)C(=O)N1 (centres undefined) | 6.31 |  | Activity (HT-1080 [4]): Active |
| COc1c(C)cnc(Cn2cnc3c(N4CCC(C5CCN(C(=O)Cn6cc(COc7ccc(N(C(=O)CCl)C(C(=O)NCCc8ccccc8)c8cccs8)cc7Cl)nn6)CC5)CC4)nc(N)nc32)c1C (centres undefined) | 6.01 | Active |  |
| COc1c(C)cnc(Cn2cnc3c(NCCOCCOCCOCCOCCNC(=O)Cn4cc(COc5ccc(N(C(=O)CCl)C(C(=O)NCCc6ccccc6)c6cccs6)cc5Cl)nn4)nc(N)nc32)c1C (centres undefined) | 4.82 | Active |  |
| COc1c(C)cnc(Cn2cnc3c(N4CCC(NC(=O)Cn5cc(COc6ccc(N(C(=O)CCl)C(C(=O)NCCc7ccccc7)c7cccs7)cc6Cl)nn5)CC4)nc(N)nc32)c1C (centres undefined) | 5.62 | Active |  |
| COc1c(C)cnc(Cn2cnc3c(N4CCC(N5CCN(C(=O)Cn6cc(COc7ccc(N(C(=O)CCl)C(C(=O)NCCc8ccccc8)c8cccs8)cc7Cl)nn6)CC5)CC4)nc(N)nc32)c1C (centres undefined) | 5.85 | Active |  |
| COc1c(C)cnc(Cn2cnc3c(NCCC4CCN(C(=O)Cn5cc(COc6ccc(N(C(=O)CCl)C(C(=O)NCCc7ccccc7)c7cccs7)cc6Cl)nn5)CC4)nc(NC(C)=O)nc32)c1C (centres undefined) | 4.81 | Active |  |
| Nc1ncnc2c1nc(Sc1cc3c(cc1I)OCO3)n2CCNC(=O)CCCCCNC(=O)Cn1cc(COc2ccc(N(C(=O)CCl)C(C(=O)NCCc3ccccc3)c3cccs3)cc2Cl)nn1 (centres undefined) | 4.38 | Active |  |
| COc1c(C)cnc(Cn2cnc3c(NCCOCCOCCNC(=O)Cn4cc(COc5ccc(N(C(=O)CCl)C(C(=O)NCCc6ccccc6)c6cccs6)cc5Cl)nn4)nc(N)nc32)c1C (centres undefined) | 5.59 | Active |  |
| Nc1ncnc2c1nc(Sc1cc3c(cc1I)OCO3)n2CCNC(=O)CCNC(=O)Cn1cc(COc2ccc(N(C(=O)CCl)C(C(=O)NCCc3ccccc3)c3cccs3)cc2Cl)nn1 (centres undefined) | 4.25 | Active |  |
| COc1c(C)cnc(Cn2cnc3c(NCCOCCOCCOCCOCCOCCn4cc(COc5ccc(N(C(=O)CCl)C(C(=O)NCCc6ccccc6)c6cccs6)cc5Cl)nn4)nc(N)nc32)c1C (centres undefined) | 5.46 | Active |  |
| COc1c(C)cnc(Cn2cnc3c(NCCOCCNC(=O)Cn4cc(COc5ccc(N(C(=O)CCl)C(C(=O)NCCc6ccccc6)c6cccs6)cc5Cl)nn4)nc(N)nc32)c1C (centres undefined) | 5.62 | Active |  |
| COc1ccc(N(C(=O)CCl)C(C(=O)NCCc2ccccc2)c2cccs2)cc1Cl (centres undefined) | 6.12 |  | Activity (HT-1080 [5]): inactive; fold change (FC) (HT-1080 [6]): 3; pIC50 (HT-1080 [7]): 5.70; Activity (HT-1080 [4]): inactive; Activity [8]: Toxic |
| COc1c(C)cnc(Cn2cnc3c(Cl)nc(N)nc32)c1C [BIIB021] | 4.79 |  | Activity (HT-1080 [4]): inactive; Activity [9]: Toxic; Activity (HT-1080 [10]): inactive |
| COc1c(C)cnc(Cn2cnc3c(NCCCCNC(=O)Cn4cc(COc5ccc(N(C(=O)CCl)C(C(=O)NCCc6ccccc6)c6cccs6)cc5Cl)nn4)nc(N)nc32)c1C (centres undefined) | 5.96 | Active |  |
| Nc1ncnc2c1nc(Sc1cc3c(cc1I)OCO3)n2CCOCCOCCNC(=O)Cn1cc(COc2ccc(N(C(=O)CCl)C(C(=O)NCCc3ccccc3)c3cccs3)cc2Cl)nn1 (centres undefined) | 5.82 | Active |  |
| COc1c(C)cnc(Cn2cnc3c(N4CCN(C(=O)Cn5cc(COc6ccc(N(C(=O)CCl)C(C(=O)NCCc7ccccc7)c7cccs7)cc6Cl)nn5)CC4)nc(N)nc32)c1C (centres undefined) | 5.39 | Active |  |
